The source of these data is US10988812B2, “Fusion genes associated with progressive prostate cancer” (UNIVERSITY OF PITTSBURGH - OF THE COMMONWEALTH SYSTEM OF …, priority 2013, dated 2021).

Like-named read-outs stand apart in the source and are kept apart here.

What all share (type): cell-based, human
Assay [1] has as its system MAN2A1-FER transformed PC3 cells. Description: Cell death of PC3 cells transformed with pCDNA4-MAN2A1-FER-FLAG/pCDNA6. The protocol: FIG. 23. […] Prostate cancer cell line PC3 was transformed with pCDNA4-MAN2A1-FER-FLAG/pCDNA6. Expression of MAN2A1-FER was induced with 5 μg/mL tetracycline. Cells not treated with tetracycline nor any drug were used as background controls.
The second approach is to target EGFR activation by EGFR inhibitors. These include erlotinib, cetuximab, […], canertinib and […]. Many of these drugs were FDA approved and is widely used in a variety of human solid tumors. To interrogate the effectiveness of EGFR activation interruption in treating prostate cancer, we treated MAN2A1-FER transformed PC3 cells with canertinib.

In a further assay the test system is PC3 cells. Description: Ganciclovir killing of PC3 cells after genome editing that integrates HSV-1 TK at the TMEM135-CCDC67 breakpoint. As to conditions: PC3 cells without TMEM135-CCDC67 breakpoint, same treatment. An excerpt: (§1) FIG. 28A-B. Genetic therapy targeting at TMEM135-CCDC67 genome breakpoint.
(§2) The technique described above was applied to cells having the TMEM135-CCDC67 breakpoint. Since none of the fusion genes we identified so far was present in prostate cancer cell lines, we created a TMEM135-CCDC67 genome breakpoint that is identical to the prostate cancer sample we analyzed. The expression of the TMEM135-CCDC67 breakpoint was driven by a CMV promoter. Subsequently, we constructed a donor DNA that encompassed HSV-1 TK and the splicing sites of TMEM135 exon 14. When we co-transfected this donor DNA with a vector that expresses gRNA targeting at the TMEM135-CCDC67 breakpoint into PC3 cells containing this genome breakpoint, integration of TK into the genome was identified (FIG. 28A). […] This is remarkable in considering only 5-10% transfection efficiency using conventional liposome method. […] In light of this promising result, both TMEM135-CCDC67-TK cassette and NicKase-gRNATMEM135-CCDC67-BrkPt DNA are now in the process of packaging into Adenovirus. We will infect the recombinant virus into these cells in the future experiments. This will dramatically improve the delivery efficiency in the subsequent animal study and probably human.

Assay [2] deals with PC3 cells containing TMEM135-CCDC67 breakpoint. The assay is described as above.
Excerpt: as §1, §2

`Cn1cnc2c(F)c(Nc3ccc(Br)cc3Cl)c(C(=O)NOCCO)cc21` [AZD6244]: the “differential killing effect (MAN2A1-FER expressing versus not)” value in assay [1] (MEK interception, data not shown) was “largely moderated and vanished”.
Regarding `C=CC(=O)Nc1cc2c(Nc3ccc(F)c(Cl)c3)ncnc2cc1OCCCN1CCOCC1` [Canertinib], the “cell death / killing of cells not expressing MAN2A1-FER” value in assay [1] (PC3 cells not expressing MAN2A1-FER (Tet-)) is “minimal”. In assay [1] (expression induced with 5 μg/mL tetracycline), the “specific killing of MAN2A1-FER expressing cells (FIG. 23)” value is reported as “specifically kills”.
For the compound `C[C@@H](Oc1cc(-c2cnn(C3CCNCC3)c2)cnc1N)c1c(Cl)ccc(F)c1Cl` [Crisotinib], in assay [1], the cell death stood at 31%, the “cell death / killing of cells not expressing MAN2A1-FER” value is “hardly killed”, the “lowering of cancer killing EC50 by expression of MAN2A1-FER” value was around 100 fold and the “specific killing of MAN2A1-FER expressing cells (FIG. 23)” value is recorded as “specifically kills”.
Turning to `Nc1nc(O)c2ncn(COC(CO)CO)c2n1` [ganciclovir], the cell death entry in the assay on PC3 cells was “minimal cell death”. In assay [2], the “specific killing of TMEM135-CCDC67 breakpoint containing PC3 cells (FIG. 28B)” value is “specific killing”.
